What was measured:
[1] = biological target: Cytochrome P450 2C19 (Homo sapiens, UniProt P33261); assay: Inhibition of CYP2C19 (unknown origin); assay type: ADME
[2] = AUC in human LG0787F cells xenografted in NSG mouse at 1 mg/kg/day, po qd; assay type: ADME, organism-based; set-up: dose 1 mg/kg/day, route po; conditions: in vivo
[3] = Cmax in human LG0787F cells xenografted in NSG mouse at 1 mg/kg/day, po qd; assay type: ADME, organism-based; set-up: dose 1 mg/kg/day, route po; conditions: in vivo
[4] = AUC in human LG0787F cells xenografted in NSG mouse at 1 mg/kg/day, po bid; assay type: ADME, organism-based; set-up: dose 1 mg/kg/day, route po; conditions: in vivo
[5] = system: SW900; assay: Anticancer activity against human SW900 cells; assay type: functional, cell-based
[6] = Elimination half life in dog at 0.1 mg/kg, iv; assay type: ADME, organism-based, Canis lupus familiaris; conditions: in vivo, read-out: beta t1/2 (converted)
[7] = Volume of distribution at steady state in dog at 0.1 mg/kg, iv; assay type: ADME, organism-based, Canis lupus familiaris; conditions: in vivo, read-out: Vdss
[8] = Antitumour activity against patient-derived human PAT130 cells xenografted in mouse model at 1.6 mg/kg, po bid, 5 days on and 2 days off for 2 weeks; assay type: functional; conditions: PAT130, 120 h, time 5 day, read-out: TGI
[9] = biological target: Voltage-gated inwardly rectifying potassium channel KCNH2 (Homo sapiens, UniProt Q12809); assay: Inhibition of human ERG by patch-clamp assay
Voltage-gated inwardly rectifying potassium channel KCNH2, sequence (Q12809 whole entry): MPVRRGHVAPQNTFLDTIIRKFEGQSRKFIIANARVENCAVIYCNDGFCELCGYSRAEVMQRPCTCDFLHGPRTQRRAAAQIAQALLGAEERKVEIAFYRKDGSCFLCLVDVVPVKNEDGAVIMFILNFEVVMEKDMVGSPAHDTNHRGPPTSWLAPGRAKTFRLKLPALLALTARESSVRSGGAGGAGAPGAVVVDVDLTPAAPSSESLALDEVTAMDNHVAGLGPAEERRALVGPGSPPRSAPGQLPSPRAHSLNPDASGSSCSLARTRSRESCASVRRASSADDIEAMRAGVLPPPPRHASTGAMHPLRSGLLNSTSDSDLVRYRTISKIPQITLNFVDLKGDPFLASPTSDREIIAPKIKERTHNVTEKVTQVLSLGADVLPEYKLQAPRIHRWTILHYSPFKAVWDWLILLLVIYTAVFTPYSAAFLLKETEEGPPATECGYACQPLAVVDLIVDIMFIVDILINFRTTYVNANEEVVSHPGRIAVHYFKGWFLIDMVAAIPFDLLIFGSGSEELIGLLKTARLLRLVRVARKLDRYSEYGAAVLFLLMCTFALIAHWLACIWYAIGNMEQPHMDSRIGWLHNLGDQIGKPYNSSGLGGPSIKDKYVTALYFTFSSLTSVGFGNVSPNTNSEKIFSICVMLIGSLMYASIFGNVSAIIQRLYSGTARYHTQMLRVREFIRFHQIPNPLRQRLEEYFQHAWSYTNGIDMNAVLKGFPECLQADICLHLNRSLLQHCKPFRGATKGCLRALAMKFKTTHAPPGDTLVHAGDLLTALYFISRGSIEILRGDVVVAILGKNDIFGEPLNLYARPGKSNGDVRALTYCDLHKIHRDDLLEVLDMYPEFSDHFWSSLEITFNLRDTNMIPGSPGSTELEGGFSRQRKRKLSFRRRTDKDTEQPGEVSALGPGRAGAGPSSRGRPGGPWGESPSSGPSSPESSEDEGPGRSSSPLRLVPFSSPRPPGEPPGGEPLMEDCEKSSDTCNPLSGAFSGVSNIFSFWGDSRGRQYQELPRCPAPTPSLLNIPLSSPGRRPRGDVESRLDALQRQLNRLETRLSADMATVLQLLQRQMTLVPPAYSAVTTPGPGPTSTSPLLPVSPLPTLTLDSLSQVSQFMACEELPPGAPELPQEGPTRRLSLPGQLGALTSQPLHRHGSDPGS

[10] = biological target: Cytochrome P450 2C9 (Homo sapiens, UniProt P11712); assay: Inhibition of CYP2C9 (unknown origin); assay type: ADME
Cytochrome P450 2C9, sequence (P11712 whole entry): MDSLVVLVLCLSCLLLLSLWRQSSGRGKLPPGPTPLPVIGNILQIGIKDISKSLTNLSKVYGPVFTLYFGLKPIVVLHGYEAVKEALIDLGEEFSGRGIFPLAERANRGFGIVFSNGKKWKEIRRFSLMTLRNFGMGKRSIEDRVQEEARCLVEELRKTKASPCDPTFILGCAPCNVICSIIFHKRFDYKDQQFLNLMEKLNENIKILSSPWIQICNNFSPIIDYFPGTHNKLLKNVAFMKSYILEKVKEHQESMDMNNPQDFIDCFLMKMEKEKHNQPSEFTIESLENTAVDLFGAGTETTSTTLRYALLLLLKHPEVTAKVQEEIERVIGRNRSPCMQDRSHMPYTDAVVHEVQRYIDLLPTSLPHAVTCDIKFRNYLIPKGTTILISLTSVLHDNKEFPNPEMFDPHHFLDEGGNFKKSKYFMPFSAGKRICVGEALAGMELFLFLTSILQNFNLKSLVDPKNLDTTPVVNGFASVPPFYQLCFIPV

[11] = Antitumour activity against patient-derived human PAT157 cells xenografted in mouse model at 1.6 mg/kg, po bid, 5 days on and 2 days off for 2 weeks; assay type: functional; conditions: PAT157, 120 h, time 5 day, read-out: TGI
[12] = system: NCI-H1048; assay: Anticancer activity against human NCI-H1048 cells; assay type: functional, cell-based
[13] = system: NCI-H647; assay: Anticancer activity against human NCI-H647 cells; assay type: functional, cell-based
[14] = system: NCI-H211; assay: Anticlonogenic activity against human NCI-H211 cells; assay type: functional, cell-based
[15] = Antitumour activity against human LG0787F cells xenografted in NSG mouse assessed as tumour growth inhibition at 0.5 mg/kg/day infused continuously over 6 days using Alzet pump; assay type: functional; conditions: 144 h, time 6 day, read-out: TGI
[16] = system: DMS-114; assay: Anticancer activity against human DMS-114 cells; assay type: functional, cell-based
[17] = Elimination half life in monkey at 0.1 mg/kg, iv; assay type: ADME, organism-based, Macaca mulatta; conditions: rhesus monkey, in vivo, read-out: beta t1/2 (converted)
[18] = system: NCI-H2030; assay: Anticancer activity against human NCI-H2030 cells; assay type: functional, cell-based
[19] = Antitumour activity against patient-derived human PAT129 cells xenografted in mouse model at 1.6 mg/kg, po bid, 5 days on and 2 days off for 2 weeks; assay type: functional; conditions: PAT129, 120 h, time 5 day, read-out: TGI
[20] = system: MOLM-13; assay: Anticancer activity against human MOLM-13 cells; assay type: functional, cell-based
[21] = Permeability coefficient across basolateral to apical side in human Caco-2 cells; assay type: ADME, cell-based; conditions: read-out: permeability
[22] = system: NCI-H1792; assay: Anticancer activity against human NCI-H1792 cells; assay type: functional, cell-based
[23] = system: NCI-H211; assay: Anticancer activity against human NCI-H211 cells; assay type: functional, cell-based
[24] = system: HCC44; assay: Anticancer activity against human HCC44 cells; assay type: functional, cell-based
[25] = biological target: Bromodomain-containing protein 4 (Homo sapiens, UniProt O60885); assay: Inhibition of human BRD4 (1 to 477 residues) measured after 60 mins by TR-FRET assay
[26] = Anticancer activity against human HCC1588 cells; assay type: functional, cell-based
[27] = Oral bioavailability in mouse at 5 mg/kg; assay type: ADME, organism-based; conditions: in vivo
[28] = system: NCI-H23; assay: Anticancer activity against human NCI-H23 cells; assay type: functional, cell-based
[29] = AUC in human LG0787F cells xenografted in NSG mouse at 0.25 mg/kg/day, po bid; assay type: ADME, organism-based; set-up: dose 0.25 mg/kg/day, route po; conditions: in vivo
[30] = Oral bioavailability in dog at 5 mg/kg; assay type: ADME, organism-based, Canis lupus familiaris; conditions: in vivo
[31] = biological target: Cytochrome P450 2D6 (Homo sapiens, UniProt P10635); assay: Inhibition of CYP2D6 (unknown origin); assay type: ADME
Cytochrome P450 2D6, sequence (P10635 whole entry): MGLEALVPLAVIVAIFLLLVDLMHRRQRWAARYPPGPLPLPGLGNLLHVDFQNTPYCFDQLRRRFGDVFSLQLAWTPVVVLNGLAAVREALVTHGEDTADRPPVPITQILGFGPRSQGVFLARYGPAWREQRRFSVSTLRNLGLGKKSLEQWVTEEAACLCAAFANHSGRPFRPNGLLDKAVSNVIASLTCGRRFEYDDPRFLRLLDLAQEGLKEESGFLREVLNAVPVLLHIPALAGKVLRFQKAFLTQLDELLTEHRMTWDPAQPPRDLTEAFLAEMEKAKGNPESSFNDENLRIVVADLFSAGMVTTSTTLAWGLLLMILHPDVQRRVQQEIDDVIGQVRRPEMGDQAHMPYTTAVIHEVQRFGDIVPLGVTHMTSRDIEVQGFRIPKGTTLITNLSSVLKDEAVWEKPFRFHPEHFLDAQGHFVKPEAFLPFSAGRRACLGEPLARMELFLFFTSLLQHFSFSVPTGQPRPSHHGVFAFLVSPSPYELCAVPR

[32] = biological target: Cytochrome P450 1A2 (Homo sapiens, UniProt P05177); assay: Inhibition of CYP1A2 (unknown origin); assay type: ADME
Cytochrome P450 1A2, sequence (P05177 whole entry): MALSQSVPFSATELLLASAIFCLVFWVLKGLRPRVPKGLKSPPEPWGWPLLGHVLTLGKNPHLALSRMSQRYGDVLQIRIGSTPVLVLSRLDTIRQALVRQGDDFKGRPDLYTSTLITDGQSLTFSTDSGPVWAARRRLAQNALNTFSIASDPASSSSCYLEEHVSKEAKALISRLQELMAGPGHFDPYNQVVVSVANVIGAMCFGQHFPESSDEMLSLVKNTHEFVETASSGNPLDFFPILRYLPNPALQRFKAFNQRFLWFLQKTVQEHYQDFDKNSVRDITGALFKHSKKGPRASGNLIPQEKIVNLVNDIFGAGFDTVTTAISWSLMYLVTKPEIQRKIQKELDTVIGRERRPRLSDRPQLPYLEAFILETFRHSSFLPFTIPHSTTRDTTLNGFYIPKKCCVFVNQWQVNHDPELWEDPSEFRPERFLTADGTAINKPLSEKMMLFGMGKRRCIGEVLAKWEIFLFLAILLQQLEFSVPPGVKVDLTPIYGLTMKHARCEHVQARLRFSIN

[33] = Anticancer activity against human HCC33 cells; assay type: functional, cell-based
[34] = Drug concentration at steady state in human LG0787F cells xenografted in NSG mouse at 1 mg/kg/day infused continuously over 6 days using Alzet pump; assay type: ADME, organism-based; conditions: in vivo, 144 h, time 6 day
[35] = biological target: Bromodomain-containing protein 2 (Homo sapiens, UniProt P25440); assay: Inhibition of human BRD2 measured by TR-FRET assay
Bromodomain-containing protein 2, sequence (P25440 whole entry): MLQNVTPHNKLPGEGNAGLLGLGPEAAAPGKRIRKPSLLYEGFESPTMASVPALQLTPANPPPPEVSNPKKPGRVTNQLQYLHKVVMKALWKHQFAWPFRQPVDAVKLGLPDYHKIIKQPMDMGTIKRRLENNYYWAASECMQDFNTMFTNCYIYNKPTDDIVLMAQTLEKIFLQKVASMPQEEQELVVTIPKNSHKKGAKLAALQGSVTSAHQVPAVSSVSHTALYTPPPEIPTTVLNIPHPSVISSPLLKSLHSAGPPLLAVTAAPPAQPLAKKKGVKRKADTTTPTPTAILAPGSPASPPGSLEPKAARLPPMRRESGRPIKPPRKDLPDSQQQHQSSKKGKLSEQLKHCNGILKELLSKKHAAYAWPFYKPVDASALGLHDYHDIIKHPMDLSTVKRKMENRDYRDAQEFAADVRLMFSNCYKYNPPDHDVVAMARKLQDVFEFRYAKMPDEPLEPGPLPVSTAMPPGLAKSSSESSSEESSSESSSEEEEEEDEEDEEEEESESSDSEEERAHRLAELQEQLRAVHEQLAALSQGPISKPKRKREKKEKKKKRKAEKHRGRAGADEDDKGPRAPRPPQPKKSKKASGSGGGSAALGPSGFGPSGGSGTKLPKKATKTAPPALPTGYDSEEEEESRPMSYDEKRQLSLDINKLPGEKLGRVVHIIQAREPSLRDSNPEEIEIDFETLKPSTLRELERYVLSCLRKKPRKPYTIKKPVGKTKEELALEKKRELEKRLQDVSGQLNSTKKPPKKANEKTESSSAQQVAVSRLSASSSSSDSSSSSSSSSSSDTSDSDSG

[36] = Antitumour activity against patient-derived human PAT014 cells xenografted in mouse model at 1.6 mg/kg, po bid, 5 days on and 2 days off for 2 weeks; assay type: functional; conditions: PAT014, 120 h, time 5 day, read-out: TGI
[37] = Anticancer activity against human JJN3R cells; assay type: functional, cell-based; conditions: JJN-3R
[38] = system: SK-MES-1; assay: Anticancer activity against human SK-MES-1 cells; assay type: functional, cell-based
[39] = Antitumour activity against patient-derived human PAT150 cells xenografted in mouse model at 1.6 mg/kg, po bid, 5 days on and 2 days off for 2 weeks; assay type: functional; conditions: PAT150, 120 h, time 5 day, read-out: TGI
[40] = Metabolic stability in human liver microsomes assessed as parent compound remaining at 0.5 uM after 10 mins; assay type: ADME, Microsome; conditions: read-out: Stability
[41] = Antitumour activity against human LG0787F cells xenografted in po dosed NSG mouse assessed as minimum effective concentration; assay type: functional; conditions: dose 0.25 mg/kg/day
[42] = system: NCI-H2228; assay: Anticancer activity against human […] cells; assay type: functional, cell-based
[43] = system: HCC95; assay: Anticancer activity against human HCC95 cells; assay type: functional, cell-based
[44] = system: NCI-H2170; assay: Anticancer activity against human NCI-H2170 cells; assay type: functional, cell-based
[45] = Elimination half life in rat at 1 mg/kg, iv; assay type: ADME, organism-based; conditions: in vivo, read-out: beta t1/2 (converted)
[46] = Total plasma clearance in monkey at 0.1 mg/kg, iv; assay type: ADME, organism-based, Macaca mulatta; conditions: rhesus monkey
[47] = Antitumour activity against patient-derived human PAT160 cells xenografted in mouse model at 1.6 mg/kg, po bid, 5 days on and 2 days off for 2 weeks; assay type: functional; conditions: PAT160, 120 h, time 5 day, read-out: TGI
[48] = Elimination half life in mouse at 1.75 mg/kg, iv; assay type: ADME, organism-based; conditions: in vivo, read-out: beta t1/2 (converted)
[49] = Antitumour activity against patient-derived human PAT136 cells xenografted in mouse model at 1.6 mg/kg, po bid, 5 days on and 2 days off for 2 weeks; assay type: functional; conditions: PAT136, 120 h, time 5 day, read-out: TGI
[50] = Antitumour activity against patient-derived human PAT81 cells xenografted in mouse model at 1.6 mg/kg, po bid, 5 days on and 2 days off for 2 weeks; assay type: functional; conditions: PAT81, 120 h, time 5 day, read-out: TGI
[51] = Cmax in human LG0787F cells xenografted in NSG mouse at 1 mg/kg/day, po bid; assay type: ADME, organism-based; set-up: dose 1 mg/kg/day, route po; conditions: in vivo
[52] = system: DMS-53; assay: Anticancer activity against human DMS-53 cells; assay type: functional, cell-based

Cytochrome P450 2C19, sequence (P33261 whole entry): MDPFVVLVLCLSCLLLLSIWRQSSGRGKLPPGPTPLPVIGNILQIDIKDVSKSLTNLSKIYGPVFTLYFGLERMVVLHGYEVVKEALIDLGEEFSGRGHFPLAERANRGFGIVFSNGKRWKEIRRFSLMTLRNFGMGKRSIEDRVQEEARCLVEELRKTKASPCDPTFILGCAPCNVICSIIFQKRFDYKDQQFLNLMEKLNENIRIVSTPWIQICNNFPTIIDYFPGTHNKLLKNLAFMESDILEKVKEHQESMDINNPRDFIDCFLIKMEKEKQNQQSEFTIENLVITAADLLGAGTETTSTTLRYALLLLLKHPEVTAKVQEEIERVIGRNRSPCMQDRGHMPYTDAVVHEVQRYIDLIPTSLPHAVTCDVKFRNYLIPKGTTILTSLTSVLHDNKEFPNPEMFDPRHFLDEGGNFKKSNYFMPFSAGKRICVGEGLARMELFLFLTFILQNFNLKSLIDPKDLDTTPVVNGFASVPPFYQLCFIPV

## Cc1nnn(C)c1-c1cnc2c3ccc(C(C)(C)O)cc3n([C@H](c3ccccc3)C3CCOCC3)c2c1 [EZOBRESIB]
[1]
  IC50: 5.6 µM
[2]
  AUC: 600 nM·h
[3]
  Cmax: 0.15 µM
[4]
  AUC: 470 nM·h
[5]
  IC50: > 0.5 µM
[6]
  half-life: 5.6 h
[7]
  Vd: 5.3 L/kg
[8]
  inhibition in vivo at 1.6 mg/kg: 76%
[9]
  IC50: 28 µM
[10]
  IC50: 11.8 µM
[11]
  inhibition in vivo at 1.6 mg/kg: 23%
[12]
  IC50: > 0.5 µM
[13]
  IC50: 0.441 µM
[14]
  IC50: 0.0056 µM
[15]
  inhibition in vivo at 0.5 mg/kg/day: 62%
[16]
  IC50: 0.00032 µM
[17]
  half-life: 2 h
[18]
  IC50: > 0.5 µM
[19]
  inhibition in vivo at 1.6 mg/kg: 65%
[20]
  IC50: 0.0017 µM
[21]
  Papp B→A: 347 nm/s
[22]
  IC50: > 0.5 µM
[23]
  IC50: 0.0003 µM
[24]
  IC50: 0.0027 µM
[25]
  IC50: 0.0011 µM
[26]
  IC50: > 0.5 µM
[27]
  bioavailability: 100%
[28]
  IC50: 0.062 µM
[29]
  AUC: 300 nM·h
[30]
  bioavailability: 59%
[31]
  IC50: > 20 µM
[32]
  IC50: > 20 µM
[33]
  IC50: 0.00023 µM
[34]
  Css: 0.017 µM
[35]
  IC50: 0.0014 µM
[36]
  inhibition in vivo at 1.6 mg/kg: 70%
[37]
  IC50: 0.0007 µM
[38]
  IC50: > 0.5 µM
[39]
  inhibition in vivo at 1.6 mg/kg: 62%
[40]
  remaining at 10 min, 0.5 µM: 82%
[41]
  MEC: 0.03 µM
[42]
  IC50: 0.166 µM
[43]
  IC50: 0.0081 µM
[44]
  IC50: 0.091 µM
[45]
  half-life: 4.2 h
[46]
  clearance: 1.92 L/h/kg
[47]
  inhibition in vivo at 1.6 mg/kg: 9%
[48]
  half-life: 1.8 h
[49]
  inhibition in vivo at 1.6 mg/kg: 92%
[50]
  inhibition in vivo at 1.6 mg/kg: 112%
[51]
  Cmax: 0.04 µM
[52]
  IC50: 0.00029 µM

From ChEMBL document CHEMBL5053512, “Discovery and Preclinical Pharmacology of an Oral Bromodomain and Extra-Terminal (BET) Inhibitor Using Scaffold-Hopping and Structure-Guided Drug Design” (J Med Chem, 2021)
